{"source": "patent US11661426B2", "about": "“Imidazole-containing inhibitors of ALK2 kinase” (BioCryst Pharmaceuticals, Inc., priority 2017, dated 2023)", "biological_target": "ALK2 (Homo sapiens (Human), UniProt Q04771)", "sequence (Q04771 21-509)": "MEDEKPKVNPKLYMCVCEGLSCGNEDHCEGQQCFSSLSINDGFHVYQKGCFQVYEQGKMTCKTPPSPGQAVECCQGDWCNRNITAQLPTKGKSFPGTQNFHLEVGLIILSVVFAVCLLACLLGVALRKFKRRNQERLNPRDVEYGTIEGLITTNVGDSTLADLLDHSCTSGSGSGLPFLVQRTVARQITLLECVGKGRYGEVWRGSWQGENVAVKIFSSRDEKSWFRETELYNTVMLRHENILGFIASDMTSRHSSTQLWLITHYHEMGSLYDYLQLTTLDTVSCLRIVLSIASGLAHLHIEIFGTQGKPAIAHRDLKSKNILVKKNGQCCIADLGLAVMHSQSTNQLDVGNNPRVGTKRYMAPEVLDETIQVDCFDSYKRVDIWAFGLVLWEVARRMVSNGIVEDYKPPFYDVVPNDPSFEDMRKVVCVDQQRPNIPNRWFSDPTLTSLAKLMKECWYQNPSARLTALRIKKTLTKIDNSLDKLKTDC", "assay": "ALK2 inhibition, LanthaScreen Eu Kinase Binding Assay (ThermoFisher Scientific / Life Technologies)", "settings": "read-out: Measured Ki (IC50) Value for Compounds: IC50", "method": "Biochemical assays to measure the inhibitory effects of the compounds were performed by ThermoFisher Scientific (Life Technologies). ALK2 inhibition was tested using LanthaScreen™ Eu Kinase Binding Assay screening protocol."}
{"compound": "COc1cc(-n2cnc(Nc3nc(N4CCC[C@H]4CO)c4c(C)nn([C@H]5C[C@H](O)C5)c4n3)c2)cc(OC)c1OC", "note": "[Compound 465c, (trans)-3-(4-((S)-2-(hydroxymethyl)pyrrolidin-1-yl)-3-methyl-6-((1-(3,4,5-trimethoxyphenyl)-1H-imidazol-4-yl)amino)-1H-pyrazolo[3,4-d]pyrimidin-1-yl)cyclobutanol]", "values": [{"measurement": "IC50", "value": "< 100", "unit": "nM"}]}
{"compound": "COc1cc(-n2cnc(Nc3nc(N4CCC[C@@H]4CO)c4cccn4n3)c2)cc(OC)c1OC", "note": "[Compound 227b, (R)-(1-(2-((1-(3,4,5-trimethoxyphenyl)-1H-imidazol-4-yl)amino)pyrrolo[2,1-f][1,2,4]triazin-4-yl)pyrrolidin-2-yl)methanol]", "values": [{"measurement": "IC50", "value": "100 to 1000", "unit": "nM"}]}
{"compound": "COc1cc(-n2cnc(Nc3nc4c(c(N5CCC[C@H]5CO)n3)COCC4)c2)cc(OC)c1OC", "note": "[Compound 343b, (S)-(1-(2-((1-(3,4,5-trimethoxyphenyl)-1H-imidazol-4-yl)amino)-7,8-dihydro-5H-pyrano[4,3-d]pyrimidin-4-yl)pyrrolidin-2-yl)methanol]", "values": [{"measurement": "IC50", "value": "< 100", "unit": "nM"}]}
{"compound": "COc1cc(-n2cnc(Nc3nc(N4CCC[C@H]4C(N)=O)nc4sc(CN5CCN(c6ccccn6)CC5)cc34)c2)cc(OC)c1OC", "note": "[Compound 408b, (S)-1-(6-((4-(pyridin-2-yl)piperazin-1-yl)methyl)-4-((1-(3,4,5-trimethoxyphenyl)-1H-imidazol-4-yl)amino)thieno[2,3-d]pyrimidin-2-yl)pyrrolidine-2-carboxamide]", "values": [{"measurement": "IC50", "value": "< 100", "unit": "nM"}]}
{"compound": "Cn1cnc(Nc2nc(N3CCCC3c3cccnc3)nc3ccoc23)c1", "note": "(stereo not shown) [Compound 11a, N-(1-methyl-1H-imidazol-4-yl)-2-(2-(pyridin-3-yl)pyrrolidin-1-yl)furo[3,2-d]pyrimidin-4-amine]", "values": [{"measurement": "IC50", "value": "< 100", "unit": "nM"}]}
{"compound": "COc1cc(-n2cnc(Nc3nc(N4CCC[C@H]4CO)nc4cc(N5CCNCC5)ccc34)c2)cc(OC)c1OC", "note": "[Compound 376b, (S)-(1-(7-(piperazin-1-yl)-4-((1-(3,4,5-trimethoxyphenyl)-1H-imidazol-4-yl)amino)quinazolin-2-yl)pyrrolidin-2-yl)methanol]", "values": [{"measurement": "IC50", "value": "< 100", "unit": "nM"}]}
{"compound": "COc1cc(-n2cnc(Nc3nc(N4CCC[C@H]4CO)nc4[nH]nc(C)c34)c2)cc(OC)c1OC", "note": "[Compound 400d, (S)-(1-(3-methyl-4-((1-(3,4,5-trimethoxyphenyl)-1H-imidazol-4-yl)amino)-1H-pyrazolo[3,4-d]pyrimidin-6-yl)pyrrolidin-2-yl)methanol]", "values": [{"measurement": "IC50", "value": "100 to 1000", "unit": "nM"}]}
{"compound": "COc1cc(-n2cnc(Nc3nc(N4CCC[C@H]4C(N)=O)nc4[nH]ccc34)c2)cc(OC)c1OC", "note": "[Compound 142b, (S)-1-(4-((1-(3,4,5-trimethoxyphenyl)-1H-imidazol-4-yl)amino)-7H-pyrrolo[2,3-d]pyrimidin-2-yl)pyrrolidine-2-carboxamide]", "values": [{"measurement": "IC50", "value": "< 100", "unit": "nM"}]}
{"compound": "CC(C)(C)OC(=O)N1CC=C(c2ccc3c(Nc4cn(-c5ccccc5)cn4)nc(N4CCC[C@H]4CO)nn23)CC1", "note": "[Compound 80a, (S)-tert-butyl 4-(2-(2-(hydroxymethyl)pyrrolidin-1-yl)-4-(1-phenyl-1H-imidazol-4-ylamino)pyrrolo[1,2-f][1,2,4]triazin-7-yl)-5,6-dihydropyridine-1(2H)-carboxylate]", "values": [{"measurement": "IC50", "value": "100 to 1000", "unit": "nM"}]}
{"compound": "COc1cc(-n2cnc(Nc3nc(N4CCC[C@H]4C(N)=O)nn4cccc34)c2)cc(C(=O)NC2CCCC2)c1O", "note": "[Compound 351d, (S)-1-(4-((1-(3-(cyclopentylcarbamoyl)-4-hydroxy-5-methoxyphenyl)-1H-imidazol-4-yl)amino)pyrrolo[2,1-f][1,2,4]triazin-2-yl)pyrrolidine-2-carboxamide]", "values": [{"measurement": "IC50", "value": "> 1000", "unit": "nM"}]}
{"compound": "COc1cc(-n2cnc(Nc3nc(N4CCC[C@H]4C(N)=O)nn4c(CN5CCCCC5)ccc34)c2)cc(OC)c1OC", "note": "[Compound 117a, (S)-1-(7-(piperidin-1-ylmethyl)-4-((1-(3,4,5-trimethoxyphenyl)-1H-imidazol-4-yl)amino)pyrrolo[2,1-f][1,2,4]triazin-2-yl)pyrrolidine-2-carboxamide]", "values": [{"measurement": "IC50", "value": "< 100", "unit": "nM"}]}
{"compound": "OC[C@@H]1CCCN1c1nc(Nc2cn(C3CCCCC3)cn2)c2cccn2n1", "note": "[Compound 28c, (S)-(1-(4-((1-cyclohexyl-1H-imidazol-4-yl)amino)pyrrolo[2,1-f][1,2,4]triazin-2-yl)pyrrolidin-2-yl)methanol]", "values": [{"measurement": "IC50", "value": "100 to 1000", "unit": "nM"}]}
{"compound": "COc1cc(-n2cnc(Nc3nc(N4CCC[C@H]4CO)nc4cccc(F)c34)c2)cc(OC)c1OC", "note": "[Compound 341a, (S)-(1-(5-fluoro-4-((1-(3,4,5-trimethoxyphenyl)-1H-imidazol-4-yl)amino)quinazolin-2-yl)pyrrolidin-2-yl)methanol]", "values": [{"measurement": "IC50", "value": "< 100", "unit": "nM"}]}
{"compound": "COc1cc(-n2cnc(Nc3nc(N4CC[C@H](O)C4)nc4ccoc34)c2)cc(OC)c1OC", "note": "[Compound 237a, (S)-1-(4-((1-(3,4,5-trimethoxyphenyl)-1H-imidazol-4-yl)amino)furo[3,2-d]pyrimidin-2-yl)pyrrolidin-3-ol]", "values": [{"measurement": "IC50", "value": "< 100", "unit": "nM"}]}
{"compound": "COc1cc(-n2cnc(Nc3nc(N4CCCC4)nc4cccnc34)c2)cc(OC)c1OC", "note": "[Compound 188a, 2-(pyrrolidin-1-yl)-N-(1-(3,4,5-trimethoxyphenyl)-1H-imidazol-4-yl)pyrido[3,2-d]pyrimidin-4-amine]", "values": [{"measurement": "IC50", "value": "< 100", "unit": "nM"}]}
{"compound": "COc1cc(-n2cnc(Nc3nc(N4CCCC4)nn4cccc34)c2)cc(OC)c1OC", "note": "[Compound 156a, 2-(pyrrolidin-1-yl)-N-(1-(3,4,5-trimethoxyphenyl)-1H-imidazol-4-yl)pyrrolo[2,1-f][1,2,4]triazin-4-amine]", "values": [{"measurement": "IC50", "value": "< 100", "unit": "nM"}]}
{"compound": "COc1cc(-n2cnc(Nc3nc(N4CCC[C@H]4CO)nc4c3COCC4)c2)cc(OC)c1OC", "note": "[Compound 342c, (S)-(1-(4-((1-(3,4,5-trimethoxyphenyl)-1H-imidazol-4-yl)amino)-7,8-dihydro-5H-pyrano[4,3-d]pyrimidin-2-yl)pyrrolidin-2-yl)methanol]", "values": [{"measurement": "IC50", "value": "< 100", "unit": "nM"}]}
{"compound": "COc1cc(-n2cnc(Nc3nc4c(c(N5CCC[C@H]5C(N)=O)n3)CN(Cc3ccccc3)CC4)c2)cc(OC)c1OC", "note": "[Compound 213b, (S)-1-(6-benzyl-2-((1-(3,4,5-trimethoxyphenyl)-1H-imidazol-4-yl)amino)-5,6,7,8-tetrahydropyrido[4,3-d]pyrimidin-4-yl)pyrrolidine-2-carboxamide]", "values": [{"measurement": "IC50", "value": "< 100", "unit": "nM"}]}
{"compound": "COc1cc(-n2cnc(Nc3nc(N4CCC[C@H]4CO)nn4cccc34)c2)cc(C#N)c1OC", "note": "[Compound 167f, (S)-5-(4-((2-(2-(hydroxymethyl)pyrrolidin-1-yl)pyrrolo[2,1-f][1,2,4]triazin-4-yl)amino)-1H-imidazol-1-yl)-2,3-dimethoxybenzonitrile]", "values": [{"measurement": "IC50", "value": "> 1000", "unit": "nM"}]}
{"compound": "OC[C@@H]1CCCN1c1nc(Nc2cn(C3CCC3)cn2)c2cccn2n1", "note": "[Compound 43a, (S)-(1-(4-((1-cyclobutyl-1H-imidazol-4-yl)amino)pyrrolo[2,1-f][1,2,4]triazin-2-yl)pyrrolidin-2-yl)methanol]", "values": [{"measurement": "IC50", "value": "< 100", "unit": "nM"}]}
{"compound": "COC(=O)c1cnc(Nc2nc(N3CCC[C@H]3CO)nn3cccc23)s1", "note": "[Compound 455d, (S)-methyl 2-((2-(2-(hydroxymethyl)pyrrolidin-1-yl)pyrrolo[2,1-f][1,2,4]triazin-4-yl)amino)thiazole-5-carboxylate]", "values": [{"measurement": "IC50", "value": "> 1000", "unit": "nM"}]}
{"compound": "COc1cc(-n2cnc(Nc3nc(N4CCCC4)c4cccn4n3)c2)cc(OC)c1OC", "note": "[Compound 168b, 4-(pyrrolidin-1-yl)-N-(1-(3,4,5-trimethoxyphenyl)-1H-imidazol-4-yl)pyrrolo[2,1-f][1,2,4]triazin-2-amine]", "values": [{"measurement": "IC50", "value": "100 to 1000", "unit": "nM"}]}
{"compound": "COc1cc(-n2cnc(Nc3nc(N4CCC[C@H]4CO)nn4c(CO)ccc34)c2)cc(OC)c1OC", "note": "[Compound 101c, (S)-(1-(7-(hydroxymethyl)-4-((1-(3,4,5-trimethoxyphenyl)-1H-imidazol-4-yl)amino)pyrrolo[2,1-f][1,2,4]triazin-2-yl)pyrrolidin-2-yl)methanol]", "values": [{"measurement": "IC50", "value": "< 100", "unit": "nM"}]}
{"compound": "COc1cncc(-n2cnc(Nc3nc(N4CCC[C@H]4CO)nn4cccc34)c2)c1", "note": "[Compound 321b, (S)-(1-(4-((1-(5-methoxypyridin-3-yl)-1H-imidazol-4-yl)amino)pyrrolo[2,1-f][1,2,4]triazin-2-yl)pyrrolidin-2-yl)methanol]", "values": [{"measurement": "IC50", "value": "< 100", "unit": "nM"}]}
{"compound": "OC[C@@H]1CCCN1c1nc(Nc2cn([C@H]3C[C@H](O)C3)cn2)c2cccn2n1", "note": "[Compound 471e, (trans)-3-(4-((2-((S)-2-(hydroxymethyl)pyrrolidin-1-yl)pyrrolo[2,1-f][1,2,4]triazin-4-yl)amino)-1H-imidazol-1-yl)cyclobutanol]", "values": [{"measurement": "IC50", "value": "< 100", "unit": "nM"}]}
{"compound": "COc1cc(-n2cnc(Nc3nc(N4CCC[C@@H]4C(N)=O)nc4c3CCCC4)c2)cc(OC)c1OC", "note": "[Compound 313a, (R)-1-(4-((1-(3,4,5-trimethoxyphenyl)-1H-imidazol-4-yl)amino)-5,6,7,8-tetrahydroquinazolin-2-yl)pyrrolidine-2-carboxamide]", "values": [{"measurement": "IC50", "value": "< 100", "unit": "nM"}]}
{"compound": "OC[C@@H]1CCCN1c1nc(Nc2cn(-c3ccc4cc[nH]c4c3)cn2)c2cccn2n1", "note": "[Compound 65c, (S)-(1-(4-((1-(1H-indol-6-yl)-1H-imidazol-4-yl)amino)pyrrolo[2,1-f][1,2,4]triazin-2-yl)pyrrolidin-2-yl)methanol]", "values": [{"measurement": "IC50", "value": "100 to 1000", "unit": "nM"}]}
{"compound": "Cc1cc(-n2cnc(Nc3nc(N4CCC[C@H]4CO)nn4cccc34)c2)ccn1", "note": "[Compound 437e, (S)-(1-(4-((1-(2-methylpyridin-4-yl)-1H-imidazol-4-yl)amino)pyrrolo[2,1-f][1,2,4]triazin-2-yl)pyrrolidin-2-yl)methanol]", "values": [{"measurement": "IC50", "value": "< 100", "unit": "nM"}]}
{"compound": "COc1cc(-n2cnc(Nc3nc(N4CCC[C@H]4C(N)=O)nc4ccsc34)c2)cc(OC)c1OC", "note": "[Compound 189a, (S)-1-(4-((1-(3,4,5-trimethoxyphenyl)-1H-imidazol-4-yl)amino)thieno[3,2-d]pyrimidin-2-yl)pyrrolidine-2-carboxamide]", "values": [{"measurement": "IC50", "value": "< 100", "unit": "nM"}]}
{"compound": "OC[C@@H]1CCCN1c1nc(Nc2cn(-c3cc[nH]n3)cn2)c2cccn2n1", "note": "[Compound 71c, (S)-(1-(4-((1-(1H-pyrazol-3-yl)-1H-imidazol-4-yl)amino)pyrrolo[2,1-f][1,2,4]triazin-2-yl)pyrrolidin-2-yl)methanol]", "values": [{"measurement": "IC50", "value": "< 100", "unit": "nM"}]}
{"compound": "COc1cc(-n2cnc(Nc3nc(N4CCC[C@H]4CO)c4ccc(-c5cccc(NS(C)(=O)=O)c5)cc4n3)c2)cc(OC)c1OC", "note": "[Compound 363b, (S)—N-(3-(4-(2-(hydroxymethyl)pyrrolidin-1-yl)-2-((1-(3,4,5-trimethoxyphenyl)-1H-imidazol-4-yl)amino)quinazolin-7-yl)phenyl)methanesulfonamide]", "values": [{"measurement": "IC50", "value": "< 100", "unit": "nM"}]}
